In patent US20160031937A1, “NEURAL REGENERATION PEPTIDES AND USES THEREFOR” (CURONZ HOLDINGS COMPANY LIMITED, priority 2013, published 2016):
Like-named read-outs stand apart in the source and are kept apart here. Square brackets hold non-standard residues; d marks the D form. Ends that are not written are not given here. Aib = CC(C)(N)C(=O)O

Tests used:
human W9-hESCs [1] = experiment: H2O2 induced oxidative stress injury, LDH detected cell death; format: cell-based; settings: for cell death reduced by (LDH): 50 μM H2O2, first 4 hours, corrected for basal injury; for reduced LDH release, net effect at 24 hours: H2O2 injury; for reduction of LDH detected cell death: between removal of H2O2 at 4 hours and 24 hours; for reduction of LDH release, net effect at 24 hours: H2O2
Description: (§1) Experiments with human embryonic stem cells (hESC) were carried out in accordance with the guidelines and regulations of the NHMRC and with the approval of the Austin Health Human Research Ethics Committee (Approval number H2008/03194), and University of Melbourne Human Research Ethics Committee (Approval number 0605017). H9 (WA-09, WiCell) cell lines were grown as previously described (Dottori & Pera, 2007).
(§2) Briefly, hESC were cultured on mitomycin-C treated mouse embryonic fibroblasts (MEFs) in hESC medium consisting of high-glucose Dulbecco's Modified Eagle Medium (DMEM) without sodium pyruvate, supplemented with 1% insulin/transferrin/selenium, 0.1 mM β-mercaptoethanol, 1% nonessential amino acids (NEAA), 2 mM glutamine, 25 U/ml penicillin, 25 μg/ml streptomycin (all from Invitrogen) and 20% fetal calf serum (FCS) (Hyclone).
(§3) Alternatively, hESC were cultured on mitomycin-C treated human foreskin fibroblasts (HFF; ATCC, CRL-2097) in KSR media consisting of DMEM/nutrient mixture F-12, supplemented with 0.1 mM […], 1% nonessential amino acids (NEAA), 2 mM glutamine, 25 U/ml penicillin, 25 μg/ml streptomycin and 20% knockout serum replacement (all from Invitrogen).
(§4) All cells were cultured at 37° C. in 5% CO2 with 100% humidity. Colonies were mechanically dissected every 7 days (subcultivated or passaged) and transferred to freshly prepared MEFs or HFFs. Media was changed every second day.
(§5) Neuronal differentiation was achieved using the noggin induction method described for mouse neurospheres as adapted by Dottori for human neurospheres (Dottori & Pera, 2007). The colonies were maintained at 37° C., with 5% CO2 in hESC medium supplemented with 500 ng/ml of Noggin for 14 days while replacing Noggin every other day.
(§6) At this point, the cells were washed with PBS and the colonies were again mechanically dissociated, but this time the central (differentiated) part of the colony was also cut into smaller pieces using a 26-gauge needle. The pieces were transferred to individual wells in a low adherent 96-well plate containing Neurobasal®A (NBM) (Invitrogen) supplemented with 1× X B-27® (Invitrogen) and 1× N-2 (Invitrogen) 20 ng/ml human recombinant EGF and 20 ng/ml human recombinant bFGF (Pharmacia). Media was changed every 2 to 3 days to allow neurosphere formation over 2 weeks.
(§7) In order to facilitate neuronal differentiation, neurospheres were again separated into smaller pieces under a dissection microscope, and three to four pieces were transferred to each well of a 96-well plate. Prior to this transfer, the plate was pre-coated with poly-D-lysine (10 μg/ml in PBS), washed in PBS, recoated with mouse laminin (5 μg/ml in PBS), and washed again. The cells were then grown for 11 days (with media changed every two days) in NBM lacking growth factors prior to induction of injury and assessment of hypothermia.
(§8) On the day of experiments, the medium was changed to NBM+N2 containing a B27 preparation lacking the usual antioxidants (Invitrogen; 10889-038) to eliminate their confounding effects (NBM-AO).
The media was replaced with fresh NBM-AO and the cells were incubated for a further 20 hours containing drug, before again measuring LDH. Oxidative stress was induced by adding 50 μM fresh H2O2 (Sigma, H1009) to the growth factor negative NBM on initiation of the experiment with continued culture for 4 hours when LDH was measured and NBM-AO without H2O2 was returned to the culture which was maintained for a further 20 hours before again measuring LDH. […]
Measurement of lactate dehydrogenase activity (a marker of total cell death) and TUNEL staining (a marker of apoptotic death) was performed according to the kit manufacturer's instructions (Roche, 1164479001 and 11684795910 respectively).
Within experiments, each comparison was performed at least in triplicate and the mean of these values taken forward into group comparisons. […]

W9-hESCs = experiment: TUNEL staining for apoptotic cell death after OGD injury; format: cell-based, human; settings: 24 hours, 100 pM NRP2945
Description: as §5
as §6, with “Media was changed every 2 to 3 days to allow neurosphere formation over 2 weeks.” left out
To maintain isoosmotic pressure conditions, 25 mM 2-deoxy-D-glucose was added to NBM-AO medium and equilibrated for 30 minutes at room temperature before the initial media change as described above. […] Culture supernatant was removed after this 4 hour period and stored at 4° C. until analysed for lactate dehydrogenase (LDH) activity. […]
Tunnel positive cells, wells were imaged and the images re-coded independently before quantitation. No additional blinding was performed for the machine read LDH assay process.

neuronal stem cells = experiment: Neuronal chemoattraction; format: cell-based
human W9-hESCs [2] = format: cell-based; settings: for reduction in LDH detected cell death: first 4 hours; for decrease of delayed injury (LDH): between removal of OGD at 4 hours and 24 hours
Description: as §1, §2, §3, §4, §5, §6, §7, §8
To maintain isoosmotic pressure conditions, 25 mM 2-deoxy-D-glucose was added to NBM-AO medium and equilibrated for 30 minutes at room temperature before the initial media change as described above. […] Culture supernatant was removed after this 4 hour period and stored at 4° C. until analysed for lactate dehydrogenase (LDH) activity.
The media was replaced with fresh NBM-AO and the cells were incubated for a further 20 hours containing drug, before again measuring LDH. Oxidative stress was induced by adding 50 μM fresh H2O2 (Sigma, H1009) to the growth factor negative NBM on initiation of the experiment with continued culture for 4 hours when LDH was measured and NBM-AO without H2O2 was returned to the culture which was maintained for a further 20 hours before again measuring LDH.

Gly Arg Arg Ala Ala Pro Gly Arg Aib Gly Gly (GRRAAPGR[Aib]GG) [NRP2945, synthetic 11-mer peptidomimetic optimized for stability and pharmacokinetics]
cell death reduced by (LDH) (human W9-hESCs [1]; 1 pM NRP2945 at injury induction): 35% | cell death reduced by (LDH) (human W9-hESCs [1]; 1 fM NRP2945 at injury induction): 23.2% | cell death reduced by (LDH) (human W9-hESCs [1]; 10 fM NRP2945 at injury induction): 40% | cell death reduced by (LDH) (human W9-hESCs [1]; 100 fM NRP2945 at injury induction): 44% | reduced LDH release, net effect at 24 hours (human W9-hESCs [1]; 1 pM NRP2945): 26% | reduced LDH release, net effect at 24 hours (human W9-hESCs [1]; 1 fM NRP2945): 27% | reduced LDH release, net effect at 24 hours (human W9-hESCs [1]; 10 fM NRP2945): 48% | reduced LDH release, net effect at 24 hours (human W9-hESCs [1]; 100 fM NRP2945): 47% | reduction of LDH detected cell death (human W9-hESCs [1]; 10 fM NRP2945): 70% | reduction of LDH detected cell death (human W9-hESCs [1]; 100 fM NRP2945): 57% | reduction of LDH release, net effect at 24 hours (human W9-hESCs [1]; repeat experiment, 10 fM NRP2945 added at 0 hours): 48% | reduction of LDH release, net effect at 24 hours (human W9-hESCs [1]; repeat experiment, 10 fM NRP2945 added at 1 hour): 35% | reduction of LDH release, net effect at 24 hours (human W9-hESCs [1]; repeat experiment, 10 fM NRP2945 added at 3 hours (p≦0.124)): 23% | reduction of LDH release, net effect at 24 hours (human W9-hESCs [1]; repeat experiment, 100 fM NRP2945 added at 0 hours): 41% | reduction of LDH release, net effect at 24 hours (human W9-hESCs [1]; repeat experiment, 100 fM NRP2945 added at 1 hour): 39% | reduction of LDH release, net effect at 24 hours (human W9-hESCs [1]; repeat experiment, 100 fM NRP2945 added at 3 hours): 27% | reduction in cell death (LDH) (human W9-hESCs [1]; repeat experiment, first 4 hours of H2O2 injury, 10 fM NRP2945 added at 0 hours): 40% | reduction in cell death (LDH) (human W9-hESCs [1]; repeat experiment, first 4 hours of H2O2 injury, 10 fM NRP2945 administered one hour after injury induction): 35% | reduction in cell death (LDH) (human W9-hESCs [1]; repeat experiment, first 4 hours of H2O2 injury, 100 fM NRP2945 added at 0 hours): 37% | reduction in cell death (LDH) (human W9-hESCs [1]; repeat experiment, first 4 hours of H2O2 injury, 100 fM NRP2945 administered one hour after injury induction): 33% | effect on cell death (LDH) (human W9-hESCs [1]; repeat experiment, first 4 hours of H2O2 injury, NRP2945 added 3 hours after injury induction (1 hour exposure)): no significant beneficial effect | W9-hESCs protected from apoptotic cell death (TUNEL) (W9-hESCs): 23% | neuronal chemoattractive potency relative to SDF-1 (neuronal stem cells; NRP2945 versus SDF-1): more than 1 million | EC50 values for chemoattraction (neuronal stem cells; preliminary experiments): lower femtomolar range | neuroprotective effects during OGD (human W9-hESCs [2]; 100 fM NRP2945): did not show neuroprotective effects | decrease in LDH detected cell death in presence of CXCR4 inhibitor (human W9-hESCs [2]; 4 hours of OGD injury, 100 pM NRP2945 plus 300 nM AMD3100): abolished | decrease in LDH detected cell death (human W9-hESCs [2]; AMD3100 experiment, 4 hours of OGD injury, 100 pM NRP2945 without inhibitor): 44% | reduction of LDH release, net effect at 24 hours (human W9-hESCs [2]; AMD3100 experiment, OGD, 100 pM NRP2945 without inhibitor): 55% | reduction in LDH detected cell death (human W9-hESCs [2]; OGD, 1 pM NRP2945 at injury induction): 23% | reduction in LDH detected cell death (human W9-hESCs [2]; OGD, 10 pM NRP2945 at injury induction): 37% | reduction in LDH detected cell death (human W9-hESCs [2]; OGD, 100 pM NRP2945 at injury induction): 43% | reduction of LDH release, net effect at 24 hours (human W9-hESCs [2]; OGD, 1 pM NRP2945): 28% | reduction of LDH release, net effect at 24 hours (human W9-hESCs [2]; OGD, 10 pM NRP2945): 44% | reduction of LDH release, net effect at 24 hours (human W9-hESCs [2]; OGD, 100 pM NRP2945): 52% | reduction of LDH release, net effect at 24 hours, in presence of CXCR4 inhibitor (human W9-hESCs [2]; OGD, 100 pM NRP2945 plus 300 nM AMD3100): blocked | reduction of LDH release, net effect at 24 hours (human W9-hESCs [2]; OGD, 100 fM NRP2945): 17% | decrease of delayed injury (LDH) (human W9-hESCs [2]; 10 pM NRP2945): 67% | decrease of delayed injury (LDH) (human W9-hESCs [2]; 100 pM NRP2945): 79% | reduction in LDH detected cell death (human W9-hESCs [2]; repeat experiment, OGD, 10 pM NRP2945 during injury induction): 41% | reduction in LDH detected cell death (human W9-hESCs [2]; repeat experiment, OGD, 10 pM NRP2945 one hour after injury induction): 31% | reduction in LDH detected cell death (human W9-hESCs [2]; repeat experiment, OGD, 100 pM NRP2945 during injury induction): 47% | reduction in LDH detected cell death (human W9-hESCs [2]; repeat experiment, OGD, 100 pM NRP2945 one hour after injury induction): 34% | reduction of LDH release, net effect at 24 hours (human W9-hESCs [2]; repeat experiment, OGD, 10 pM NRP2945 added at 0 hours): 48% | reduction of LDH release, net effect at 24 hours (human W9-hESCs [2]; repeat experiment, OGD, 10 pM NRP2945 added at 1 hour): 36% | reduction of LDH release, net effect at 24 hours (human W9-hESCs [2]; repeat experiment, OGD, 10 pM NRP2945 added at 3 hours): 22% | reduction of LDH release, net effect at 24 hours (human W9-hESCs [2]; repeat experiment, OGD, 100 pM NRP2945 added at 0 hours): 54% | reduction of LDH release, net effect at 24 hours (human W9-hESCs [2]; repeat experiment, OGD, 100 pM NRP2945 added at 1 hour): 35% | reduction of LDH release, net effect at 24 hours (human W9-hESCs [2]; repeat experiment, OGD, 100 pM NRP2945 added at 3 hours): 22%
